Here are results for 30 compounds from patent US20260049085A1, “CYCLIC COMPOUNDS AND METHODS OF USING SAME” (SCHRÖDINGER, INC., priority 2022, published 2026).

The assay deals with T1, full-length MALT1 protein His-MALT1(1-824) (Homo sapiens, UniProt Q9UDY8).
T1 construct: full-length MALT1 protein His-MALT1(1-824); His (N); made in house; host or cells: baculovirus-infected insect cells
T1 sequence (Q9UDY8 1-824): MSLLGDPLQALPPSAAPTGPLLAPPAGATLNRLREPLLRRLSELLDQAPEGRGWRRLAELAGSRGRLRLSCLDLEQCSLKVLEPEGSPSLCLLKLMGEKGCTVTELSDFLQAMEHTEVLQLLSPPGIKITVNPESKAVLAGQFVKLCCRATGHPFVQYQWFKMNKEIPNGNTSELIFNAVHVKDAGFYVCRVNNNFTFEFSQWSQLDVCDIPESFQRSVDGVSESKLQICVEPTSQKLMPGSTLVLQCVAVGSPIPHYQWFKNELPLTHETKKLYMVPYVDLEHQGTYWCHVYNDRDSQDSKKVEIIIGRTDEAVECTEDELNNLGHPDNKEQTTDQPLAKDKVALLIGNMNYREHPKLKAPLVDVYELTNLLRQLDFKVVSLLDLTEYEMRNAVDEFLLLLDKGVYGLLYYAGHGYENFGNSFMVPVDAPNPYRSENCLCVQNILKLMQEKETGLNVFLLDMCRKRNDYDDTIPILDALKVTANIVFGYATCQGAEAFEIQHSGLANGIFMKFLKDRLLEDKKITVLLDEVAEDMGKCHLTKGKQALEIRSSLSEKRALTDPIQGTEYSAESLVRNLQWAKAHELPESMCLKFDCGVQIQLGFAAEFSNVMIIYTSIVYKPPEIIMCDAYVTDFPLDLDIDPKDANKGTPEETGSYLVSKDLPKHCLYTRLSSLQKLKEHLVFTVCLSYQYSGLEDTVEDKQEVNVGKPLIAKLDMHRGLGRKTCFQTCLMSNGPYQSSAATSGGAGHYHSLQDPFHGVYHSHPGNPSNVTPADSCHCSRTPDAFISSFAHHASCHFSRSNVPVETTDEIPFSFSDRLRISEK
Nature of the assay: MALT1 protease assay (Ac-LRSR-AMC tetrapeptide substrate, fluorescence). The assay is classed as biochemical. As to conditions: 1 nM MALT1, 25 μM Ac-LRSR-AMC, 2 h pre-incubation, 8 hr incubation at RT. As to the method: MALT1 protease activity was assessed in an in vitro assay using a tetrapeptide as substrate and full-length MALT1 protein His-MALT1(1-824) purified from baculovirus-infected insect cells.
The final assay buffer includes 1 nM of MALT1 full-length protein, 25 μM Ac-LRSR-AMC substrate, 50 mM Tris pH 7.5, 600 mM Sodium Citrate, 1 mM DTT, 1 mM EDTA, and 0.05% BSA in 384-well plate format using black microtiter square well plates (Optiplate 384-F, Perkin Elmer).
Test compounds were dissolved in 100% DMSO stock of 10 mM, with final DMSO concentration of 0.1%. Test compounds were pre-incubated with MALT1 protein for 2 h at room temperature. Substrate was added after the pre-incubation and fluorescence signal was measured using Envision at excitation 355 nm and emission 460 nm after 8 hr incubation at RT.
The fluorescence units were transformed to percentage of remaining activity by using the high control (HC, median of fluorescence signal from wells containing MALT1 protein, substrate, and DMSO) and low control (LC, median of fluorescence signal from wells with substrate only) with the formula below: […]
IC50 and Hill coefficients were obtained using Graph Pad Prism (Graph Pad software, Inc, USA) with non-linear regression analysis.
Take `Cn1cc([C@]2(C)C[C@H](C(=O)Nc3cnc(-n4nccn4)c(Cl)c3)c3cnc4cc(F)nn4c32)cn1` (racemic) [Example 3, (cis)-N-(5-chloro-6-(2H-1,2,3-triazol-2-yl)pyridin-3-yl)-2-fluoro-8-methyl-8-(1-methyl-1H-pyrazol-4-yl)-7,8-dihydro-6H-cyclopenta[e]pyrazolo[1,5-a]pyrimidine-6-carboxamide]: the IC50 was in the range of 100 to 1000 nM.
`CC(F)(F)n1ccc([C@]2(C)C[C@H](C(=O)Nc3cnc(-c4ncccn4)c(Cl)c3)c3cnc4cc(F)nn4c32)n1` (racemic) [Example 170, (cis)-N-(5-chloro-6-(pyrimidin-2-yl)pyridin-3-yl)-8-(1-(1,1-difluoroethyl)-1H-pyrazol-3-yl)-2-fluoro-8-methyl-7,8-dihydro-6H-cyclopenta[e]pyrazolo[1,5-a]pyrimidine-6-carboxamide] displayed an IC50 of 100 to 1000 nM.
With `Cc1cc2ncc3c(n2n1)[C@@](C)(c1ccn(C(F)F)n1)C[C@@H]3C(=O)Nc1cnc(-c2ncccn2)c(C(F)(F)F)c1` (racemic) [Example 195, (tras)-8-(1-(difluoromethyl)-1H-pyrazol-3-yl)-2,8-dimethyl-N-(6-(pyrimidin-2-yl)-5-(trifluoromethyl)pyridin-3-yl)-7,8-dihydro-6H-cyclopenta[e]pyrazolo[1,5-a]pyrimidine-6-carboxamide] the figure was 10 to 100 nM.
As for `Cc1cc2ncc3c(n2n1)[C@](C)(c1ccn(C(F)F)n1)C[C@@H]3C(=O)Nc1cnc(-c2ncccn2)c(C(F)(F)F)c1` (racemic) [Example 196, (cis)-8-(1-(difluoromethyl)-1H-pyrazol-3-yl)-2,8-dimethyl-N-(6-(pyrimidin-2-yl)-5-(trifluoromethyl)pyridin-3-yl)-7,8-dihydro-6H-cyclopenta[e]pyrazolo[1,5-a]pyrimidine-6-carboxamide], the IC50 was in the range of 100 to 1000 nM.
As to `Cn1cc([C@]2(C)C[C@@H](C(=O)Nc3cnc(-n4nccn4)c(Cl)c3)c3cnc4cc(F)nn4c32)cn1` (single isomer, unassigned) [Example 2], the IC50 is ≥ 1000 nM.
The figure for `Cn1cc([C@]2(C)C[C@@H](C(=O)Nc3cnc(-n4nccn4)c(C(F)(F)F)c3)c3cnc4cc(F)nn4c32)cn1` (single isomer, unassigned) [Example 4] is ≥ 1000 nM; for `Cn1cc([C@@]2(C)C[C@@H](C(=O)Nc3cnc(-n4nccn4)c(C(F)(F)F)c3)c3cnc4cc(F)nn4c32)cn1` (single isomer, unassigned) [Example 6] it is 100 to 1000 nM.
With `Cn1cc([C@]2(C)C[C@H](C(=O)Nc3cnc(-n4nccn4)c(C(F)(F)F)c3)c3cnc4cc(F)nn4c32)cn1` (single isomer, unassigned) [Example 7] the figure was 100 to 1000 nM.
Regarding `Cn1cc([C@]2(C)C[C@@H](C(=O)Nc3cnc(-n4nccn4)c(Cl)c3)c3cnc4cc(Cl)nn4c32)cn1` (single isomer, unassigned) [Example 9], the IC50 was ≥ 1000 nM.
With `Cn1cc([C@]2(C)C[C@H](C(=O)Nc3cnc(-n4nccn4)c(Cl)c3)c3cnc4cc(Cl)nn4c32)cn1` (single isomer, unassigned) [Example 10] the figure was 100 to 1000 nM.
The figure for `Cn1cc([C@@]2(C)C[C@@H](C(=O)Nc3cnc(-n4nccn4)c(Cl)c3)c3cnc4cc(Cl)nn4c32)cn1` (single isomer, unassigned) [Example 11] is 100 to 1000 nM.
As to `Cn1cc([C@]2(C)C[C@@H](C(=O)Nc3cnc(-n4nccn4)c(Cl)c3)c3cnc4c(F)c(F)nn4c32)cn1` (single isomer, unassigned) [Example 13], the IC50 was ≥ 1000 nM.
The figure for `Cn1cc([C@]2(C)C[C@H](C(=O)Nc3cnc(-n4nccn4)c(Cl)c3)c3cnc4c(F)c(F)nn4c32)cn1` (single isomer, unassigned) [Example 14] is 100 to 1000 nM; for `Cn1cc([C@@]2(C)C[C@@H](C(=O)Nc3cnc(-n4nccn4)c(Cl)c3)c3cnc4c(F)c(F)nn4c32)cn1` (single isomer, unassigned) [Example 15] it is 100 to 1000 nM; for `Cn1cc([C@@]2(C)C[C@H](C(=O)Nc3cnc(-n4nccn4)c(Cl)c3)c3cnc4c(Cl)c(F)nn4c32)cn1` (single isomer, unassigned) [Example 16] it is 100 to 1000 nM.
Take `Cn1cc([C@]2(C)C[C@@H](C(=O)Nc3cnc(-n4nccn4)c(Cl)c3)c3cnc4c(Cl)c(F)nn4c32)cn1` (single isomer, unassigned) [Example 17]: the IC50 was ≥ 1000 nM.
Take `Cn1cc([C@]2(C)C[C@H](C(=O)Nc3cnc(-n4nccn4)c(Cl)c3)c3cnc4c(Cl)c(F)nn4c32)cn1` (single isomer, unassigned) [Example 18, cis-3-chloro-N-(5-chloro-6-(2H-1,2,3-triazol-2-yl)pyridin-3-yl)-2-fluoro-8-methyl-8-(1-methyl-1H-pyrazol-4-yl)-7,8-dihydro-6H-cyclopenta[e]pyrazolo[1,5-a]pyrimidine-6-carboxamide]: the IC50 was ≥ 1000 nM.
Consider `Cn1cc([C@@]2(C)C[C@@H](C(=O)Nc3cnc(-n4nccn4)c(Cl)c3)c3cnc4c(Cl)c(F)nn4c32)cn1` (single isomer, unassigned) [Example 19, cis-3-chloro-N-(5-chloro-6-(2H-1,2,3-triazol-2-yl)pyridin-3-yl)-2-fluoro-8-methyl-8-(1-methyl-1H-pyrazol-4-yl)-7,8-dihydro-6H-cyclopenta[e]pyrazolo[1,5-a]pyrimidine-6-carboxamide], for which the IC50 was ≥ 1000 nM.
The figure for `CCn1cc([C@]2(C)C[C@@H](C(=O)Nc3cnc(-n4nccn4)c(Cl)c3)c3cnc4cc(F)nn4c32)cn1` (single isomer, unassigned) [Example 21] is ≥ 1000 nM; for `CCn1cc([C@]2(C)C[C@H](C(=O)Nc3cnc(-n4nccn4)c(Cl)c3)c3cnc4cc(F)nn4c32)cn1` (single isomer, unassigned) [Example 22] it is 10 to 100 nM; for `CCn1cc([C@@]2(C)C[C@@H](C(=O)Nc3cnc(-n4nccn4)c(Cl)c3)c3cnc4cc(F)nn4c32)cn1` (single isomer, unassigned) [Example 23] it is 100 to 1000 nM.
`C[C@@]1(c2cnn(C(F)F)c2)C[C@@H](C(=O)Nc2cnc(-n3nccn3)c(Cl)c2)c2cnc3cc(F)nn3c21` (single isomer, unassigned) [Example 25]: the IC50 is ≥ 1000 nM.
With `C[C@@]1(c2cnn(C(F)F)c2)C[C@H](C(=O)Nc2cnc(-n3nccn3)c(Cl)c2)c2cnc3cc(F)nn3c21` (single isomer, unassigned) [Example 26], the IC50 lay in the range of 10 to 100 nM.
Regarding `C[C@]1(c2cnn(C(F)F)c2)C[C@@H](C(=O)Nc2cnc(-n3nccn3)c(Cl)c2)c2cnc3cc(F)nn3c21` (single isomer, unassigned) [Example 27], the IC50 was ≥ 1000 nM.
With `C[C@@]1(c2cnn(C3CC3)c2)C[C@@H](C(=O)Nc2cnc(-n3nccn3)c(Cl)c2)c2cnc3cc(F)nn3c21` (single isomer, unassigned) [Example 29], the IC50 was ≥ 1000 nM.
`C[C@@]1(c2cnn(C3CC3)c2)C[C@H](C(=O)Nc2cnc(-n3nccn3)c(Cl)c2)c2cnc3cc(F)nn3c21` (single isomer, unassigned) [Example 30] yielded an IC50 of 10 to 100 nM.
Consider `C[C@]1(c2cnn(C3CC3)c2)C[C@@H](C(=O)Nc2cnc(-n3nccn3)c(Cl)c2)c2cnc3cc(F)nn3c21` (single isomer, unassigned) [Example 31], for which the IC50 was ≥ 1000 nM.
For the compound `Cn1ccc([C@]2(C)C[C@@H](C(=O)Nc3cnc(-n4nccn4)c(Cl)c3)c3cnc4cc(F)nn4c32)n1` (single isomer, unassigned) [Example 33], the IC50 was ≥ 1000 nM.
Compound `Cn1ccc([C@]2(C)C[C@H](C(=O)Nc3cnc(-n4nccn4)c(Cl)c3)c3cnc4cc(F)nn4c32)n1` (single isomer, unassigned) [Example 34] gave an IC50 of 100 to 1000 nM.
As to `Cn1ccc([C@@]2(C)C[C@@H](C(=O)Nc3cnc(-n4nccn4)c(Cl)c3)c3cnc4cc(F)nn4c32)n1` (single isomer, unassigned) [Example 35], the 50% inhibitory concentration (IC50) fell in the range of 100 to 1000 nM.
